PMC5736175, “Nicotinic alpha 7 receptor agonists EVP-6124 and BMS-933043, attenuate scopolamine-induced deficits in visuo-spatial paired associates learning” (PLoS ONE, 2017)
“And” between values parts separate entries of the source, which are not always exact repeats. Identical values can stand only once. “Also recorded” adds a separate entry of the source.

Legend:
5-HT3 receptor = conditions: cited from earlier work
human nAChR α7 [1] = tested on: human nAChR α7; parameters: method as in PMID 20959364, PMID 22085888; conditions: xenopus oocytes expressing human nAChR α7; cited from earlier work
[2] = tested on: scopolamine-treated cynomolgus monkeys; assay: Scopolamine-induced impairment of vsPAL task performance, treatment + scopolamine; format: in vivo, cynomolgus monkeys (Macaca Fasicularis)
Method: Doses cited refer to the free base form of the compounds. […] All drugs were administered intramuscularly (i.m.) in a dosing volume of 0.1–0.2 ml/kg.
On days when compound testing occurred, approximately half the cohort received one dose and the remainder another dose of the same compound and therefore dose order was staggered between animals. With the exception of EVP-6124, all other compounds were tested in a single dose response study.
Cohen’s d values of >0.2, >0.5 and >0.8 are described using the conventions of small, medium, and large effects, respectively.

human nAChR α7 [3] = tested on: human nAChR α7; parameters: method as in PMID 20959364; conditions: QM7 cells expressing human nAChR α7; cited from earlier work
[4] = Plasma pharmacokinetics in satellite animals (LC-MS/MS), 60 min after i.m. dose; conditions: for concentration at 60 min: cynomolgus monkey, plasma, intramuscular
Method: For all compounds, plasma pharmacokinetic studies were conducted in a separate cohort of cynomolgus monkeys (N = 2–3 subjects per dose) before beginning vsPAL testing to help guide dose selection. Blood samples were obtained with the animals awake and sitting in a primate chair.
Plasma concentrations of test compounds were determined using LC-MS/MS assays. In brief, 50 μL plasma and sample containing compounds was extracted by protein precipitation method with 150 μL acetonitrile containing an internal standard. A 5 μL sample of supernatant was injected into the LC-MS/MS system. Analytes were separated by reversed phase chromatography and detection of each analyte was achieved through selected reaction monitoring mode of mass spectrometry. Samples were quantified by calculated peak area ratio of analyte and internal standard against a calibration curve.

[5] = RG3487 0.03 mg/kg + Individualized Scopolamine, MEAN of 8 animals
[6] = RG3487 0.03 mg/kg + Individualized Scopolamine, individual animals, 0.03 mg/kg
[7] = RG3487 0.03 mg/kg + scopolamine, MEAN of 8 animals
[8] = RG3487 0.03 mg/kg + scopolamine, individual animals, 0.03 mg/kg
[9] = RG3487 0.1 mg/kg + Individualized Scopolamine, MEAN of 8 animals
[10] = RG3487 0.1 mg/kg + Individualized Scopolamine, individual animals, 0.1 mg/kg
[11] = RG3487 0.1 mg/kg + scopolamine, MEAN of 8 animals
[12] = RG3487 0.1 mg/kg + scopolamine, individual animals, 0.1 mg/kg
[13] = RG3487 0.3 mg/kg + scopolamine, MEAN of 8 animals
[14] = RG3487 0.3 mg/kg + scopolamine, individual animals, 0.3 mg/kg
[15] = RG3487 1.0 mg/kg + scopolamine, MEAN of 8 animals
[16] = RG3487 1.0 mg/kg + scopolamine, individual animals, 1 mg/kg
[17] = all doses of the study, for EVP-6124 study (1)
[18] = compound 0.03 mg/kg i.m. + Scopolamine
[19] = compound 0.10 mg/kg i.m. + Scopolamine
[20] = compound 0.30 mg/kg i.m. + Scopolamine
[21] = compound 1.00 mg/kg i.m. + Scopolamine

nM total compound in plasma from satellite animals, 60 min ([4]; 0.10 mg/kg i.m., individual subjects): 74.4 nM
nM total compound in plasma from satellite animals, 60 min ([4]; 0.30 mg/kg i.m., individual subjects): 132.0 nM
nM total compound in plasma from satellite animals, 60 min ([4]; 1.00 mg/kg i.m., individual subjects): 305.0 nM
concentration at 60 min ([4]; 0.1 mg/kg, nM total compound in plasma from satellite animals, 60 min, 0.10 mg/kg i.m., individual subjects): 42.9 nM
concentration at 60 min ([4]; 0.1 mg/kg, nM total compound in plasma from satellite animals, 60 min, 0.10 mg/kg i.m., mean): 58.7 nM
concentration at 60 min ([4]; 0.3 mg/kg, nM total compound in plasma from satellite animals, 60 min, 0.30 mg/kg i.m., individual subjects): 114 nM
concentration at 60 min ([4]; 0.3 mg/kg, nM total compound in plasma from satellite animals, 60 min, 0.30 mg/kg i.m., mean): 123 nM
concentration at 60 min ([4]; 1 mg/kg, nM total compound in plasma from satellite animals, 60 min, 1.00 mg/kg i.m., individual subjects): 595 nM
concentration at 60 min ([4]; 1 mg/kg, nM total compound in plasma from satellite animals, 60 min, 1.00 mg/kg i.m., mean): 450 nM
concentration at 60 min ([4]; exposures (predicted and measured), 0.03-1 mg/kg im dose range): 15 to 450 nM
concentration at 60 min ([4]; mean plasma concentrations, satellite animals 60 min post-administration, 0.1-1.0 mg/kg dose range): 58.7 to 450 nM
SMILES: Cl.O=C(N[C@@H]1CN2CCC1CC2)c1n[nH]c2ccccc12 [RG3487, N-[(3S)-1-Azabicyclo[2.2.2]oct-3-yl]-1H-indazole-3-carboxamide HCl]
5-HT3 receptor antagonism (5-HT3 receptor): potent 5-HT3 receptor antagonists
maximal peak current, % of the acetylcholine response (human nAChR α7 [1]): 63%
Initial Correct, 3 Stimuli [2, 5]: 43.8%
Initial Correct, 4 Stimuli [2, 5]: 25.0%
Initial Correct, Overall Mean % Correct [2, 5]: 50.8%
Initial correct, 2 Stimuli [2, 5]: 83.8%
Initial Correct, 3 Stimuli [2, 6]: 60.0% and 20.0% and 40.0% and 30.0% and 90.0% and 10.0% and 80.0%
Initial Correct, 4 Stimuli [2, 6]: 30.0% and 0.0% and 50.0% and 40.0%
Initial Correct, Overall Mean % Correct [2, 6]: 60.0% and 36.7% and 46.7% and 76.7% and 40.0% and 30.0% and 70.0%
Initial correct, 2 Stimuli [2, 6]: 90.0% and 70.0% and 60.0% and 100.0% and 80.0%
Eventual Correct, 4 Stimuli ([2]; RG3487 0.03 mg/kg + scopolamine, MEAN): 59.5%
% Completion [2, 7]: 73.5%
Average Response Latency (Avg Rsp Lat) [2, 7]: 2136.0 ms
Eventual Correct, 2 Stimuli [2, 7]: 98.8%
Eventual Correct, 3 Stimuli [2, 7]: 83.8%
Eventual Correct, Overall Mean % Correct [2, 7]: 78.2%
% Completion [2, 8]: 66.2% and 53.1% and 100.0% and 69.9% and 90.5% and 22.8% and 97.3% and 88.2%
Average Response Latency (Avg Rsp Lat) [2, 8]: 2657.3 ms and 2531.6 ms and 1590.6 ms and 1325.7 ms and 2502.3 ms and 1742.8 ms and 2670.3 ms and 2067.1 ms
Eventual Correct, 2 Stimuli [2, 8]: 100.0% and 90.0%
Eventual Correct, 3 Stimuli [2, 8]: 100.0% and 60.0% and 70.0% and 50.0% and 90.0%
Eventual Correct, 4 Stimuli [2, 8]: 50.0% and 0.0% and 90.0% and 70.0% and 100.0% and 16.7%
Eventual Correct, Overall Mean % Correct [2, 8]: 83.3% and 50.0% and 96.7% and 80.0% and 100.0% and 68.9%
Initial Correct, 3 Stimuli [2, 9]: 47.5%
Initial Correct, 4 Stimuli [2, 9]: 13.8%
Initial Correct, Overall Mean % Correct [2, 9]: 50.4%
Initial correct, 2 Stimuli [2, 9]: 90.0%
Initial Correct, 3 Stimuli [2, 10]: 70.0% and 10.0% and 60.0% and 50.0% and 80.0% and 40.0% and 30.0%
Initial Correct, 4 Stimuli [2, 10]: 20.0% and 0.0% and 30.0% and 10.0% and 50.0%
Initial Correct, Overall Mean % Correct [2, 10]: 63.3% and 30.0% and 46.7% and 56.7% and 43.3%
Initial correct, 2 Stimuli [2, 10]: 100.0% and 80.0% and 90.0%
% Completion [2, 11]: 75.6%
Average Response Latency (Avg Rsp Lat) [2, 11]: 2202.7 ms
Eventual Correct, 2 Stimuli [2, 11]: 100.0%
Eventual Correct, 3 Stimuli [2, 11]: 91.3%
Eventual Correct, 4 Stimuli [2, 11]: 48.1%
Eventual Correct, Overall Mean % Correct [2, 11]: 79.8%
Eventual Correct, 2 Stimuli ([2]; RG3487 0.1 mg/kg + scopolamine, individual animals): 100.0%
% Completion [2, 12]: 58.8% and 65.1% and 100.0% and 88.7% and 67.1% and 35.0% and 91.9% and 98.1%
Average Response Latency (Avg Rsp Lat) [2, 12]: 2536.1 ms and 2248.5 ms and 1598.6 ms and 1289.8 ms and 2048.9 ms and 2712.3 ms and 2472.3 ms and 2715.2 ms
Eventual Correct, 3 Stimuli [2, 12]: 100.0% and 80.0% and 70.0%
Eventual Correct, 4 Stimuli [2, 12]: 50.0% and 16.7% and 80.0% and 70.0% and 40.0% and 11.1% and 100.0%
Eventual Correct, Overall Mean % Correct [2, 12]: 83.3% and 65.6% and 93.3% and 90.0% and 80.0% and 63.7% and 62.2% and 100.0%
% Completion [2, 13]: 74.7%
Average Response Latency (Avg Rsp Lat) [2, 13]: 2047.1 ms
Initial Correct, 3 Stimuli [2, 13]: 42.5%
Initial Correct, 4 Stimuli [2, 13]: 20.4%
Initial Correct, Overall Mean % Correct [2, 13]: 48.9%
Initial correct, 2 Stimuli [2, 13]: 83.8%
% Completion [2, 14]: 48.2% and 79.1% and 98.4% and 87.1% and 95.1% and 24.7% and 100.0% and 65.1%
Average Response Latency (Avg Rsp Lat) [2, 14]: 1983.4 ms and 2543.8 ms and 1430.4 ms and 1376.1 ms and 2172.3 ms and 1933.4 ms and 2432.3 ms and 2505.1 ms
Initial Correct, 3 Stimuli [2, 14]: 30.0% and 70.0% and 0.0% and 40.0%
Initial Correct, 4 Stimuli [2, 14]: 0.0% and 12.5% and 30.0% and 10.0% and 60.0% and 20.0%
Initial Correct, Overall Mean % Correct [2, 14]: 43.3% and 37.5% and 63.3% and 76.7% and 20.0% and 46.7% and 60.0%
Initial correct, 2 Stimuli [2, 14]: 100.0% and 70.0% and 90.0% and 40.0%
% Completion [2, 15]: 78.8%
Average Response Latency (Avg Rsp Lat) [2, 15]: 2200.2 ms
Eventual Correct, 2 Stimuli [2, 15]: 100.0%
Eventual Correct, 3 Stimuli [2, 15]: 85.0%
Eventual Correct, 4 Stimuli [2, 15]: 54.2%
Eventual Correct, Overall Mean % Correct [2, 15]: 79.7%
Initial Correct, 3 Stimuli [2, 15]: 48.8%
Initial Correct, 4 Stimuli [2, 15]: 22.2%
Initial Correct, Overall Mean % Correct [2, 15]: 49.5%
Initial correct, 2 Stimuli [2, 15]: 77.5%
Eventual Correct, 2 Stimuli ([2]; RG3487 1.0 mg/kg + scopolamine, individual animals): 100.0%
% Completion [2, 16]: 70.4% and 84.7% and 100.0% and 97.1% and 94.2% and 27.7% and 96.4% and 60.3%
Average Response Latency (Avg Rsp Lat) [2, 16]: 2560.1 ms and 2640.7 ms and 1701.5 ms and 1446.7 ms and 1640.8 ms and 2013.9 ms and 2805.9 ms and 2791.8 ms
Eventual Correct, 3 Stimuli [2, 16]: 100.0% and 70.0% and 80.0% and 90.0%
Eventual Correct, 4 Stimuli [2, 16]: 80.0% and 33.3% and 50.0% and 70.0% and 16.7%
Eventual Correct, Overall Mean % Correct [2, 16]: 93.3% and 77.8% and 73.3% and 83.3% and 90.0% and 62.2% and 71.1% and 86.7%
Initial Correct, 3 Stimuli [2, 16]: 70.0% and 50.0% and 20.0% and 80.0% and 30.0%
Initial Correct, 4 Stimuli [2, 16]: 30.0% and 11.1% and 10.0% and 50.0% and 0.0% and 16.7%
Initial Correct, Overall Mean % Correct [2, 16]: 66.7% and 37.0% and 30.0% and 60.0% and 70.0% and 33.3% and 38.9%
Initial correct, 2 Stimuli [2, 16]: 100.0% and 50.0% and 60.0% and 80.0% and 70.0%
Holm-Sidak Post-Hoc, Treatment+Scopolamine differs from Vehicle+Scopolamine: percent correct on initial attempt, 3-stimuli ([2]; all doses of the study): n.s.
Holm-Sidak Post-Hoc, Treatment+Scopolamine differs from Vehicle+Scopolamine: Choice Response Latency [2, 17]: n.s.
Holm-Sidak Post-Hoc, Treatment+Scopolamine differs from Vehicle+Scopolamine: Percent Task Completed [2, 17]: n.s.
Holm-Sidak Post-Hoc, Treatment+Scopolamine differs from Vehicle+Scopolamine: percent correct on initial attempt, 2-stimuli [2, 17]: n.s.
Holm-Sidak Post-Hoc, Treatment+Scopolamine differs from Vehicle+Scopolamine: percent correct on initial attempt, 4 stimuli [2, 17]: n.s.
Percent Correct on Initial Attempt (SEM), 2 stimuli [2, 18]: 83.8% (4.6%)
Percent Correct on Initial Attempt (SEM), 3 stimuli [2, 18]: 43.8% (10.5%)
Percent Correct on Initial Attempt (SEM), 4 stimuli [2, 18]: 25.0% (7.8%)
Percent Correct on Initial Attempt (SEM), 2 stimuli [2, 19]: 90.0% (3.3%)
Percent Correct on Initial Attempt (SEM), 3 stimuli [2, 19]: 47.5% (8.0%)
Percent Correct on Initial Attempt (SEM), 4 stimuli [2, 19]: 13.8% (6.5%)
Percent Correct on Initial Attempt (SEM), 2 stimuli [2, 20]: 83.8% (7.1%)
Percent Correct on Initial Attempt (SEM), 3 stimuli [2, 20]: 42.5% (9.0%)
Percent Correct on Initial Attempt (SEM), 4 stimuli [2, 20]: 20.4% (7.5%)
Percent Correct on Initial Attempt (SEM), 2 stimuli [2, 21]: 77.5% (6.2%)
Percent Correct on Initial Attempt (SEM), 3 stimuli [2, 21]: 48.8% (8.3%)
Percent Correct on Initial Attempt (SEM), 4 stimuli [2, 21]: 22.2% (5.6%)
effect on scopolamine-induced impairment of eventual accuracy ([2]; dose range 0.03-1.0 mg/kg i.m.): not efficacious; also recorded: failed to improve eventual accuracy; also recorded: no reversal
maximal peak current relative to acetylcholine (human nAChR α7 [3]): 69%
net charge relative to acetylcholine (human nAChR α7 [3]): 53%
